The values below come from patent publication US11566212B2, “Integrated microfluidic system for culturing and testing” (priority 2016, dated 2023).

Molecules are shown by their SMILES. Read-outs that look alike come from different tables or passages of the source.

Test in data set [1]: not given
The source holds these as a separate data set.

Setting [2] is: Franz cells, silicone membrane soaked in isopropyl myristate.
Where [3] appears, read: Diffusion chips, silicone membrane soaked in isopropyl myristate.

As to `Cn1c(=O)c2c(ncn2C)n(C)c1=O` [caffeine], the Steady state flux (24 h) turned out to be 13 μg/cm^2 h and the Steady state flux in data set [1] (24 h) is on record as 13 μg/cm^2 h. The “Dm (diffusion coefficient)” value under setting [2] was 1.3 10^−3 cm^2/h and the “Dm (diffusion coefficient)” value in data set [1] (setting [3]) was 1.8 10^−3 cm^2/h. Moreover, the “tlag (lag time)” value under setting [2] was 0.52 h and the “tlag (lag time)” value in data set [1] (setting [3]) is listed as 0.37 h.
